Laboratory results published in PubChem BioAssay AID1963833 (Molecular Pharmacology Branch, DTP, NCI, 2024).

Test system: 883617-216-R-J1-PDC complex spheroid viability
Assay: Anticancer human tumor 883617-216-R-J1-PDC patient-derived bladder carcinoma cell line growth inhibition [POLQ]
Conditions: for IC50: curve of first compound; for viability, T/C: stronger effect = lower value
Protocol: Multicellular complex tumor spheroid response to Polymerase (POL) inhibitors (novobiocin, ART-558, RP6685) in combination with a variety of drugs and investigational agents in selected tumor cell lines
The POL inhibitors (novobiocin, ART-558, and RP6685) were evaluated both individually and in combination with standard of care and investigational anticancer small molecules within a complex spheroid model of solid tumors. . Complex spheroids include a stromal component modeled by human endothelial cells (HUVEC) and fibroblasts modeled by human mesenchymal stem cells (MSCs). The concentration ranges selected for each drug and investigational agent were based upon clinically achievable concentrations if the clinical Cmax of the agent was known.
Compounds. The drugs and investigational agents: novobiocin (NSC847541), ART-558 (NSC835418), RP-6685 (NSC848927), peposertib (NSC802822), ceralasertib (NSC780249), elimusertib (NSC800525), camonsertib (NSC841442), AZD-1390 (NSC803789), olaparib (NSC753686), talazoparib (NSC767125), rucaparib (NSC756644), sotorasib (NSC818433), MRTX-1133 (NSC836407), SN-38 (NSC673596), topotecan (NSC609699), epotoside (NSC141540), doxorubicin (NSC123127), gemcitabine (NSC613327), 5-fluorouracil (NSC19893), paclitaxel (NSC125973), vemurafenib (NSC761431), MSA-2 (NSC828583), SN-011 (NSC837082), adavosertib (NSC754352), prexasertib (NSC758257), carboplatin (NSC241240) and oxaliplatin (NSC266046), were obtained from the National Cancer Institute (NCI) Developmental Therapeutics Program Chemical Repository (21). The FDA-approved anticancer drug set is available from the Developmental Therapeutics Program at https://dtp.cancer.gov/organization/dscb/obtaining/. […] The stock solutions were prepared in dimethyl sulfoxide (DMSO, Sigma-Aldrich, St. Louis, MO, cat. D2650), except for the platinum compounds which were prepared in saline (Quality Biological, Gaithersburg, MD, cat. 114-055-101), at 800-fold the tested concentration and stored at -70 degrees C prior to their use. All drugs and investigational agents were tested over a range starting from a high concentration at or near the clinical Cmax and decreasing in half-log increments. If the clinical Cmax for an agent had not been determined, the highest concentration tested was 10 microM, except for SN-38, which was tested at a high concentration of 1 microM.
Cell Culture. All cells were maintained in an incubator at 37 degrees C and 5% CO2 with 95% humidity. The PDC lines were cultured according to standard operating procedures established by the NCI PDMR (https://pdmr.cancer.gov). Table 3 of the manuscript, lists the cell lines along with the number of the three cell types plated to form the mct-spheroids and media for tumor cell growth. After thawing, all PDC lines, except 997537-175-T-J1-PDC and 415267-285-R-J2-PDC, were cultured in Matrigel-coated flasks prepared with a working solution of 1X Ham's F-12 nutrient mix, without supplementation (Thermo Fisher Scientific, cat. 11765054), 100 U/mL penicillin-streptomycin (Thermo Fisher Scientific, cat. 15140122), and 2.5% Matrigel (Corning Inc., Corning, NY, cat. 354248) for the first three passages. The two PDC lines 997537-175-T-J1-PDC and 415267-285-R-J2-PDC were cultured on uncoated flasks. The 857933-349-R-J2-PDC line was cultured in 6C/Colon 1B media containing advanced DMEM/F-12 (Thermo Fisher Scientific, cat. 12634028), 10 mM HEPES (Thermo Fisher Scientific, cat. 15630080), 1X GlutaMAX supplement (Thermo Fisher Scientific, cat. 35050061), 0.1 mg/mL primocin (InvivoGen, San Diego, CA, cat. ant-pm-2), 10% defined fetal bovine serum, heat inactivated (HyClone Laboratories Inc., Logan, UT, cat. SH30070.03HI), 50% L-WRN conditioned media (ATCC, cat. CRL-3276), 1.25 mM N-Acetyl-L-cysteine (Sigma-Aldrich, cat. A9165), 10 mM nicotinamide (Sigma-Aldrich, cat. N0636), 1X B-27 supplement (Thermo Fisher Scientific, cat. 17504044), 1X N-2 supplement (Thermo Fisher Scientific, cat. […]
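Also: spheroids exposed to compounds for seven days before readout.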
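For viability, T/C in this document: 100% = DMSO vehicle control viability.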

Question: With `CC(C)n1c(=O)n(C)c2cnc3cc(F)c(-c4ccc(OCCCN5CCCCC5)nc4)cc3c21` + Cc1cccc(N(C)C(=O)C2C(O)CCN2c2nc(C)cc(C(F)(F)F)c2C#N)c1 as the compound, how does the IC50 (second compound 0.0316 µM) read?
Answer: The IC50 was over 10 µM.

Question: What about the IC50 (second compound 0.1 µM) of the same compound?
Answer: The IC50 was over 10 µM.

Question: And the IC50 (second compound 0.316 µM)?
Answer: The IC50 was over 10 µM.

Question: What about the IC50 (second compound 1 µM) of the same compound?
Answer: Its IC50 is over 10 µM.

Question: What about the IC50 (second compound 3.16 µM) of the same compound?
Answer: Its IC50 is over 10 µM.

Question: And the IC50 (second compound 10 µM)?
Answer: Its IC50 is over 10 µM.

Question: And the viability, T/C (second compound 0.0316 µM, first compound 0.0316 µM)?
Answer: The viability, T/C was 105%.

Question: And the viability, T/C (second compound 0.0316 µM, first compound 0.1 µM)?
Answer: Its viability, T/C is 96.2%.

Question: And the viability, T/C (second compound 0.0316 µM, first compound 0.316 µM)?
Answer: Its viability, T/C is 108%.

Question: What about the viability, T/C (second compound 0.0316 µM, first compound 1 µM) of the same compound?
Answer: Its viability, T/C is 90%.

Question: What about the viability, T/C (second compound 0.0316 µM, first compound 3.16 µM) of the same compound?
Answer: Its viability, T/C is 83.9%.

Question: And the viability, T/C (second compound 0.0316 µM, first compound 10 µM)?
Answer: Its viability, T/C is 59.9%.

Question: And the viability, T/C (second compound 0.1 µM, first compound 0.0316 µM)?
Answer: Its viability, T/C is 108%.

Question: And the viability, T/C (second compound 0.1 µM, first compound 0.1 µM)?
Answer: Its viability, T/C is 111%.

Question: And the viability, T/C (second compound 0.1 µM, first compound 0.316 µM)?
Answer: The viability, T/C was 105%.

Question: And the viability, T/C (second compound 0.1 µM, first compound 1 µM)?
Answer: Its viability, T/C is 98.7%.

Question: And the viability, T/C (second compound 0.1 µM, first compound 3.16 µM)?
Answer: Its viability, T/C is 91.5%.

Question: And the viability, T/C (second compound 0.1 µM, first compound 10 µM)?
Answer: The viability, T/C was 62%.

Question: And the viability, T/C (second compound 0.316 µM, first compound 0.0316 µM)?
Answer: Its viability, T/C is 107%.

Question: What about the viability, T/C (second compound 0.316 µM, first compound 0.1 µM) of the same compound?
Answer: The viability, T/C was 93.6%.

Question: What about the viability, T/C (second compound 0.316 µM, first compound 0.316 µM) of the same compound?
Answer: The viability, T/C was 97.2%.

Question: And the viability, T/C (second compound 0.316 µM, first compound 1 µM)?
Answer: The viability, T/C was 110%.

Question: And the viability, T/C (second compound 0.316 µM, first compound 3.16 µM)?
Answer: Its viability, T/C is 92.8%.

Question: And the viability, T/C (second compound 0.316 µM, first compound 10 µM)?
Answer: Its viability, T/C is 59%.

Question: What about the viability, T/C (second compound 1 µM, first compound 0.0316 µM) of the same compound?
Answer: Its viability, T/C is 95.9%.

Question: What about the viability, T/C (second compound 1 µM, first compound 0.1 µM) of the same compound?
Answer: The viability, T/C was 108%.

Question: What about the viability, T/C (second compound 1 µM, first compound 0.316 µM) of the same compound?
Answer: Its viability, T/C is 96.1%.

Question: And the viability, T/C (second compound 1 µM, first compound 1 µM)?
Answer: The viability, T/C was 98.7%.

Question: What about the viability, T/C (second compound 1 µM, first compound 3.16 µM) of the same compound?
Answer: The viability, T/C was 96.6%.

Question: And the viability, T/C (second compound 1 µM, first compound 10 µM)?
Answer: Its viability, T/C is 59.5%.

Question: What about the viability, T/C (second compound 3.16 µM, first compound 0.0316 µM) of the same compound?
Answer: Its viability, T/C is 100%.

Question: And the viability, T/C (second compound 3.16 µM, first compound 0.1 µM)?
Answer: Its viability, T/C is 107%.

Question: What about the viability, T/C (second compound 3.16 µM, first compound 0.316 µM) of the same compound?
Answer: Its viability, T/C is 105%.

Question: And the viability, T/C (second compound 3.16 µM, first compound 1 µM)?
Answer: The viability, T/C was 108%.

Question: And the viability, T/C (second compound 3.16 µM, first compound 3.16 µM)?
Answer: The viability, T/C was 95.6%.

Question: And the viability, T/C (second compound 3.16 µM, first compound 10 µM)?
Answer: Its viability, T/C is 65.3%.

Question: And the viability, T/C (second compound 10 µM, first compound 0.0316 µM)?
Answer: Its viability, T/C is 108%.

Question: What about the viability, T/C (second compound 10 µM, first compound 0.1 µM) of the same compound?
Answer: The viability, T/C was 112%.

Question: What about the viability, T/C (second compound 10 µM, first compound 0.316 µM) of the same compound?
Answer: Its viability, T/C is 114%.

Question: And the viability, T/C (second compound 10 µM, first compound 1 µM)?
Answer: Its viability, T/C is 98.3%.

Question: And the viability, T/C (second compound 10 µM, first compound 3.16 µM)?
Answer: The viability, T/C was 105%.

Question: And the viability, T/C (second compound 10 µM, first compound 10 µM)?
Answer: Its viability, T/C is 63.4%.
